Laboratory results as given in publication PMC6349357, “Computational and experimental analysis of bioactive peptide linear motifs in the integrin adhesome” (PLoS ONE, 2019).
Marks after values point to notes of the source that are not given here.

Assays:
Assay type in all cases: cell-based, human (healthy volunteers)
resting platelets = assay: Platelet aggregation induced by peptide in resting washed platelets (activation); conditions: for Activation: platelet aggregation in resting platelets after 6 minutes incubation with peptide, pal-peptides 20 μM, tat-peptides 50 μM, optical density, aggregometer, mean, n>=3; for Aggregation before TRAP activation, donor h: replicate donor h; for Aggregation before TRAP activation, donor h / Aggregation before TRAP activation, donor i / Aggregation before TRAP activation, donor j: pal 20 μM, tat 50 μM; for Aggregation before TRAP activation, donor i: replicate donor i; for Aggregation before TRAP activation, donor j: replicate donor j; for Activation, 5μM / Activation, 20μM: S3 Table, n=3; for Activation, 5μM: peptide 5 μM; for Activation, 20μM: peptide 20 μM
Protocol: (§1) Blood was drawn from healthy volunteers into a syringe containing a final volume of 15% Acid Citrate Dextrose (ACD). The blood/ACD mixture was then aliquoted into 15 ml Cellstar tubes, at volumes of 5ml per tube, and centrifuged at 150 rcf for 10 minutes to obtain platelet rich plasma (PRP). PRP was then transferred to a 50ml tube using a pipette. The pH was then adjusted to 6.5. Prostaglandin (PGE1) was then added with a final concentration of 1μM. The PRP was then centrifuged at 750 rcf. After centrifugation the platelet poor plasma (PPP) was discarded and the pellet was resuspended in buffer A (6 mM dextrose, 130 mM NaCl, 9 mM NaHCO3, 10 mM sodium citrate, 10 mM Tris base, 3 mM KCl, 0.81 mM KH2PO4 and 0.9 mM MgCl26H2O, pH 7.4). A platelet concentration of 3x10^5/μl or 1x10^6/μl was obtained by dilution depending on the experiment in which they were used. Platelets were left to rest for 45 minutes and supplemented with 1.8mM calcium chloride prior to use.
(§2) A platelet concentration of 3x10^5 /μl was used when performing standard aggregations and a concentration of 1x10^6 /μl was used for sample preparation for western blot analysis. The extent of platelet aggregation was measured by quantifying the optical density of the samples using the Bio-Data PAP-8 aggregometer (platelet aggregation profiler, Horsham, PA, USA). A temperature of 37°C was maintained and samples were stirred using magnets spinning at 1100 rpm. 200 μl of washed platelets was added to each aggregation tube. Different volumes of buffer, peptide and TRAP were added to achieve the desired concentrations. Peptide/buffer was added to each well after two minutes. TRAP, with a final concentration depending on the experiment, was added 6 minutes later and data was collected for an additional 7 minutes.

TRAP-activated platelets = assay: Inhibition of TRAP-induced platelet aggregation after pre-incubation with peptide; conditions: for Aggregation after TRAP, peptide alone 1x (A 1x / B 1x) / Aggregation after TRAP, peptide alone 2x (A 2x / B 2x): TRAP 2 μM after 6 minutes pre-incubation, mean n = 3; for Aggregation after TRAP, peptide alone 1x (A 1x / B 1x): 4 μM pal-peptides, 10 μM tat-peptides; for Aggregation after TRAP, peptide alone 2x (A 2x / B 2x): double concentration of 4 μM (pal) / 10 μM (tat); for Aggregation after TRAP activation, donor h: replicate donor h; for Aggregation after TRAP activation, donor h / Aggregation after TRAP activation, donor i / Aggregation after TRAP activation, donor j: pal 20 μM, tat 50 μM; for Aggregation after TRAP activation, donor i: replicate donor i; for Aggregation after TRAP activation, donor j: replicate donor j
Protocol: as §1, §2

[1] = system: tyrosine phosphorylation in platelets; assay: Phosphotyrosine western blot (4G10) of platelets treated with peptide; parameters: key to Phospho: R: in resting platelets; A: after TRAP activation; conditions: phosphorylation changes associated with peptide treatment; pal 20 μM, tat 50 μM, TRAP 4 μM
Protocol: as §2
After the aggregation step, tubes were immediately placed on ice. 27 μl of lysis buffer was then added and the tube was vortexed vigorously. Lysates were left on ice for one hour and vortexed frequently. Proteins were then centrifuged at 14,000 rcf for 10 minutes to remove debris. Samples were then mixed with 2x sample buffer. 50 μl each sample was added to 50 μl of sample buffer. The protein was then denatured by heating to 95°C for 5 minutes. 10 μl of lysate was kept for protein quantification. All samples and lysates were frozen at -80°C.
The Bradford assay was then performed on the lysates to determine protein concentration. Protein concentrations were measured using the Bio-Rad DC Protein Assay. A calibration was created using samples containing a known concentration of bovine serum albumin. These were prepared in advance by sequential dilutions with final concentrations of 1.5mg/ml, 1mg/ml, 0.8mg/ml, 0.6mg/ml, 0.4mg/ml, 0.2mg/ml, 0mg/ml. Samples were then dispensed into a 96 well plate and the Bio-Rad DC reagents were added as described in the protocol. Samples were left to rest for 15 minutes and were then read using 690 0.15 mode on the Wallac plate reader. A standard curve was calculated from the standard samples of known concentration and the y = ax+b equation was used to determine the concentration of the other samples.
Sodium Dodecyl Sulfate Polyacrylamide Gel Electrophoresis (SDS-PAGE) was performed to separate proteins by molecular weight. Polyacrylamide gels were prepared (see Reagents section). Samples or molecular markers were loaded in volumes to give 20 μg of protein. The gels were then run for approximately 80 minutes or until the samples reached the end of the gel. The proteins were then transferred to polyvinylidene difluoride (PVDF) membranes using a Bio-Rad Wet Blot Transfer Cell apparatus. During the transfer the membranes were submerged in 1x transfer buffer (10% 10x transfer buffer, 70% deionised water and 20% methanol). Transfer was performed either overnight at 40 volts at 4°C, or at 100 volts for 1 hour cooled with an ice block. After the transfer the membranes were blocked for 1 hour using 3% bovine albumin serum (BSA) dissolved in TBS-T. Membranes were incubated with 4G10 antibody with a 1:1000 dilution. Unbound primary antibody was washed off with TBS-T three times for 5 minutes each. Membranes were then incubated with anti-mouse IgG secondary antibody (Millipore) with a dilution of 1:30,000. Membranes were submerged in chemiluminescence ECL solution (Thermo Scientific). They were then measured using the western blot developer UVP. One image was taken every 80 seconds for 40 minutes. Numeric data was extracted from selected blots using ImageJ.

[2] = platelet aggregation induced by 4 μM TRAP in platelets pre-incubated with peptide (low value = inhibition), pal-peptides 20 μM, tat-peptides 50 μM, mean, n>=3
[3] = S3 Table, peptide 5 μM, aggregation after TRAP, n=3
[4] = S3 Table, peptide 20 μM, aggregation after TRAP, n=3

For “TLELDRLMASLSDFRVQNHLP-tat-(NH2) [TGFB1I1_LD-tat, TGFB1I1 LD motif peptide with C-terminal tat]”, the Activation (resting platelets; unit assumed) was 3%, the “Aggregation before TRAP activation, donor h” value (resting platelets) was 3 and the “Aggregation before TRAP activation, donor i” value (resting platelets) was 4. The “Aggregation before TRAP activation, donor j” value (resting platelets) was 4, the “Aggregation after TRAP, peptide alone 1x (A 1x / B 1x)” value (TRAP-activated platelets) was 67.33 and the “Aggregation after TRAP, peptide alone 2x (A 2x / B 2x)” value (TRAP-activated platelets) was 65.67. The “Platelet aggregation remaining after TRAP (low = inhibition)” value (TRAP-activated platelets; [2]) was 66, the “Aggregation after TRAP activation, donor h” value (TRAP-activated platelets; TRAP 4 μM) was 74 and the “Aggregation after TRAP activation, donor i” value (TRAP-activated platelets; TRAP 4 μM) was 59. The “Aggregation after TRAP activation, donor j” value (TRAP-activated platelets; TRAP 4 μM) was 67 and the Phospho [1] was “R”.

“pal-RMKKKDEGSYD-(NH2) [pal-SDC4_JM, N-terminally palmitylated syndecan-4 juxtamembrane peptide]” was tested, and the Activation, 5μM (resting platelets; unit assumed) was 2%, the Activation, 20μM (resting platelets; unit assumed) was 1% and the Activation (resting platelets; unit assumed) was 0%. For the same substance, the Activation, donor 14 06 13 (resting platelets; replicate 14_06_13, SDC4 peptides and controls, 20 μM, unit assumed) was 1%, the “Activation, donor 18_06_13” value (resting platelets; replicate 18_06_13, SDC4 peptides and controls, 20 μM, in % (unit assumed)) was 1 and the “Activation, donor 20_06_13” value (resting platelets; replicate 20_06_13, SDC4 peptides and controls, 20 μM, in % (unit assumed)) was 2. The Activation, donor 20 08 13 (resting platelets; replicate 20_08_13, SDC4 peptides and controls, 20 μM, unit assumed) was 1%, the “Activation, donor 22_08_13_DONOR1” value (resting platelets; replicate 22_08_13_DONOR1, SDC4 peptides and controls, 20 μM) was 0 and the “Activation, donor 22_08_13_DONOR2” value (resting platelets; replicate 22_08_13_DONOR2, SDC4 peptides and controls, 20 μM) was 1. For the same substance, the “Aggregation before TRAP activation, donor h” value (resting platelets) was 1, the “Aggregation before TRAP activation, donor i” value (resting platelets) was 0 and the “Aggregation before TRAP activation, donor j” value (resting platelets) was 2. For the same substance, the “Aggregation (inhibition effects of syndecan-derived peptides)” value (TRAP-activated platelets; S2 Table A, peptide 20 μM, TRAP 4 μM, mean, n=6) was 45, the “Summary of effects of SDC4-derived palmitylated peptides and scrambled controls, 20μM” value (TRAP-activated platelets; S2 Table B / S2 Fig, 20 μM, activation of resting platelets and inhibition of aggregation induced by 4 μM TRAP, in words) was “Inhibitor” and the “Platelet aggregation remaining after TRAP (low = inhibition)” value (TRAP-activated platelets; S3 Table, peptide 5 μM, aggregation after TRAP, n=3, listed as A7p SDC4-JM) was 75. The “Platelet aggregation remaining after TRAP (low = inhibition)” value (TRAP-activated platelets; S3 Table, peptide 5 μM, aggregation after TRAP, n=3, listed as Juxtamembrane (A)) was 64, the “Platelet aggregation remaining after TRAP (low = inhibition)” value (TRAP-activated platelets; S3 Table, peptide 20 μM, aggregation after TRAP, n=3, listed as A7p SDC4-JM) was 73 and the “Platelet aggregation remaining after TRAP (low = inhibition)” value (TRAP-activated platelets; S3 Table, peptide 20 μM, aggregation after TRAP, n=3, listed as Juxtamembrane (A)) was 45. The “Aggregation after TRAP, peptide alone 1x (A 1x / B 1x)” value (TRAP-activated platelets) was 66.33, the “Aggregation after TRAP, peptide alone 2x (A 2x / B 2x)” value (TRAP-activated platelets) was 64.33 and the “Platelet aggregation after TRAP activation” value (TRAP-activated platelets; [2]) was 4 ^*. For the same substance, the “Inhibition, donor 14_06_13” value (TRAP-activated platelets; replicate 14_06_13, peptide 20 μM, TRAP 4 μM) was 72, the “Inhibition, donor 18_06_13” value (TRAP-activated platelets; replicate 18_06_13, peptide 20 μM, TRAP 4 μM) was 56 and the “Inhibition, donor 20_06_13” value (TRAP-activated platelets; replicate 20_06_13, peptide 20 μM, TRAP 4 μM) was 74. The “Inhibition, donor 20_08_13” value (TRAP-activated platelets; replicate 20_08_13, peptide 20 μM, TRAP 4 μM) was 7, the “Platelet aggregation remaining after TRAP (low = inhibition)” value (TRAP-activated platelets; replicate 22_08_13_DONOR1, peptide 20 μM, TRAP 4 μM) was 3 and the “Platelet aggregation remaining after TRAP (low = inhibition)” value (TRAP-activated platelets; replicate 22_08_13_DONOR2, peptide 20 μM, TRAP 4 μM) was 58. For the same substance, the “Aggregation after TRAP activation, donor h” value (TRAP-activated platelets; TRAP 4 μM) was 4, the “Aggregation after TRAP activation, donor i” value (TRAP-activated platelets; TRAP 4 μM) was 3 and the “Aggregation after TRAP activation, donor j” value (TRAP-activated platelets; TRAP 4 μM) was 5.

For “pal-TLELDRLMASLS [B23p TGFB1I1-LD, palmitylated TGFB1I1 LD peptide]”, the Activation, 5μM (resting platelets; unit assumed) was 2%, the Activation, 20μM (resting platelets; unit assumed) was 3% and the “Platelet aggregation remaining after TRAP (low = inhibition)” value (TRAP-activated platelets; [3]) was 73. For the same substance, the “Platelet aggregation remaining after TRAP (low = inhibition)” value (TRAP-activated platelets; [4]) was 70.

For pal-WEQLLTTIARTINEVENQI [B3p ACTN1-VBS], the Activation, 5μM (resting platelets; unit assumed) was 2%, the Activation, 20μM (resting platelets; unit assumed) was 1% and the “Platelet aggregation remaining after TRAP (low = inhibition)” value (TRAP-activated platelets; [3]) was 76. For the same substance, the “Platelet aggregation remaining after TRAP (low = inhibition)” value (TRAP-activated platelets; [4]) was 73.

For “tat-AGAKLRKVSKQE-(NH2) [tat-VASP, tat peptide from VASP]”, the Activation (resting platelets; unit assumed) was 3%, the “Aggregation before TRAP activation, donor h” value (resting platelets) was 3 and the “Aggregation before TRAP activation, donor i” value (resting platelets) was 3. The “Aggregation before TRAP activation, donor j” value (resting platelets) was 3, the “Platelet aggregation remaining after TRAP (low = inhibition)” value (TRAP-activated platelets; [2]) was 74 and the “Aggregation after TRAP activation, donor h” value (TRAP-activated platelets; TRAP 4 μM) was 75. The “Aggregation after TRAP activation, donor i” value (TRAP-activated platelets; TRAP 4 μM) was 71 and the “Aggregation after TRAP activation, donor j” value (TRAP-activated platelets; TRAP 4 μM) was 76.
